Laboratory results taken from patent US20140228287A1, “1-[(3-CYANO-PYRIDIN-2-YL)METHYL]-3-METHYL-7-(2-BUTYN-1-YL)-8-[3-(R)-AMINO-PIPERIDIN-1-YL]-AXANTHINE FOR THE TREATMENT OF A METABOLIC DISORDER OF A PREDOMINANTLY CARNIVOROUS NON-HUMAN ANIMAL” (BOEHRINGER INGELHEIM VETMEDICA GMBH, priority 2010, published 2014).
“Also recorded” adds a separate entry of the source. Where a name gives a salt, the structure may show the parent alone.

How the values were obtained:
[1] = target: T1, plasma DPP IV (Homo sapiens, UniProt P27487); assay: Inhibition of plasma DPP IV activity in vitro, human plasma; type: biochemical
T1 construct: from tissue; host or cells: human plasma
T1 sequence (P27487 39-766 limits assumed): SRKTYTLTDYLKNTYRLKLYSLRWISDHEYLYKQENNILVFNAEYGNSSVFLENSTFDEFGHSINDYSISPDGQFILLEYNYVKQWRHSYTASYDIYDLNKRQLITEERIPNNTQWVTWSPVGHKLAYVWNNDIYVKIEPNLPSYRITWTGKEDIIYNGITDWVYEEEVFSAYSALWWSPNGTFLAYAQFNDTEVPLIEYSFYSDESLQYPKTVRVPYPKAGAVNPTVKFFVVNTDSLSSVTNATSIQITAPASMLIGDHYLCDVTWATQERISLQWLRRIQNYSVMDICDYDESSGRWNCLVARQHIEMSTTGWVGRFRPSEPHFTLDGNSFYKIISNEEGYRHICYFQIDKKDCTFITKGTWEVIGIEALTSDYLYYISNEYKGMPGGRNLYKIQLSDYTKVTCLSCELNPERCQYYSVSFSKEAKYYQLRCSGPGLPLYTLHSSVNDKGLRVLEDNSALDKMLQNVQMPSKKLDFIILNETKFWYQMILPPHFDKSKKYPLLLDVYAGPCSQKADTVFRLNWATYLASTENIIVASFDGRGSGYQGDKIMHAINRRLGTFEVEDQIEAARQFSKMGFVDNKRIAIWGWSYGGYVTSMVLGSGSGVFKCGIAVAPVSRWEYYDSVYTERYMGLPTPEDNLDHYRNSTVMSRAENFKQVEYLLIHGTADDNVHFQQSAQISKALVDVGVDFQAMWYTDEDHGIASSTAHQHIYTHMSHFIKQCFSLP
Method: Studies were also conducted to assess the inhibitory effect of this compound on plasma DPP IV activity in several species.

[2] = target: plasmin (Homo sapiens, UniProt P00747); assay: In vitro selectivity, human proteases: plasmin; type: biochemical; conditions: up to 100 μM
Sequence of plasmin (P00747 581-810 limits assumed): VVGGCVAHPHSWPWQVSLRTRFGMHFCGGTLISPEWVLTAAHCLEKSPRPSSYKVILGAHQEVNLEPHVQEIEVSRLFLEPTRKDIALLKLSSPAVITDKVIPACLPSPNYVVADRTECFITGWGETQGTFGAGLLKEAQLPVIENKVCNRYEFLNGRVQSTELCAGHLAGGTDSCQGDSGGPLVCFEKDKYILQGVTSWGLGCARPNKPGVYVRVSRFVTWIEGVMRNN
Sequence of plasmin (P00747 97-580 partner limits assumed): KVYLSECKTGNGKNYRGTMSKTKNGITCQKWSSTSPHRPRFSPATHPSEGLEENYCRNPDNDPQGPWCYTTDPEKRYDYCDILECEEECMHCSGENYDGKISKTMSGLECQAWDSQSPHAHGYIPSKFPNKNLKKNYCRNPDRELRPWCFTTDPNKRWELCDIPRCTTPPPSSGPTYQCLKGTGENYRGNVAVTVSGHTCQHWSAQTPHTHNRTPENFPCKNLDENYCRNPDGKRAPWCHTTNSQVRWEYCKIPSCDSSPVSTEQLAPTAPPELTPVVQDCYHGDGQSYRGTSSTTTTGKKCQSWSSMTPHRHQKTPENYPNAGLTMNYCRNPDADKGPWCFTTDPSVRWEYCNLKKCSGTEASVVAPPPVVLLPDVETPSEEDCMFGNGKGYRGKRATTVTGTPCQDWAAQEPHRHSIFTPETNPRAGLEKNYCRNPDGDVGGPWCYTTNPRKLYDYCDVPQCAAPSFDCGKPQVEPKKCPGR
Source text: (§1) In order to determine the in vitro selectivity of 1-[(3-cyano-pyridin-2-yl)methyl]-3-methyl-7-(2-butyn-1-yl)-8-[3-(R)-amino-piperidin-1-yl]-xanthine, the ability of this compound to inhibit a number of human proteases was investigated as described in Thomas et al. (2008), J. Pharmacol. Exp. Ther., vol. 325, p. 175-182, chapter In vitro DPP-4 Inhibition Assay, p. 176.

[3] = system: trypsin; assay: In vitro selectivity, human proteases: trypsin; type: biochemical; conditions: up to 100 μM
Source text: as §1

[4] = system: diabetic db/db mice; assay: Delayed OGTT in diabetic db/db mice; type: in vivo, mouse; conditions: 1 mg/kg 16 hours before the test
Method: A delayed oral glucose tolerance test (OGTT) was applied to diabetic db/db mice and diabetic ZDF rats, as describes in the following.
Male obese diabetic db/db mice (C57BL/KSJ@Rj-db) were obtained from Janvier (France). Animals were fed ad libitum with a standard pelleted diet (Diet No. 3438 [containing 19% protein, 4.5% fat], Provimi Kliba, Switzerland) and had free access to water. Animals were housed in groups with a 12 h/12 h light/dark cycle (lights out between 6 p.m. and 6 a.m.). The mice used for these experiments were between 9 and 10 weeks of age.
The day before the OGTT, a blood sample from db/db mice or ZDF rats fasted for 2 hours was obtained by cutting the tip of the tail without anaesthesia and the animals were randomized for glucose (n=7 per group). The animals were fed again for 2 hours and then orally administered with either vehicle or 1-[(3-cyano-pyridin-2-yl)methyl]-3-methyl-7-(2-butyn-1-yl)-8-[3-(R)-amino-piperidin-1-yl]-xanthine monohydrochloride at doses between 0.3 and 3 mg/kg bw. A basal blood sample (pre-load) was obtained the next morning after overnight fasting for 16 hours by cutting the tip of the tail without anaesthesia. […] Additional blood samples were taken from the tip of the tail 30 min, 60 min, 90 min, 120 min, and 180 min after the glucose load, and blood glucose was measured. […]

[5] = system: blood glucose; assay: Glucose monitoring in obese/non-obese cats, 7 days once daily dosing; type: in vivo, cat; conditions: 9 mg once daily 7 days; for Glucose, Max / Glucose, Mean / Glucose, Median / Glucose, Min: all 14 obese and non-obese cats, 168 hour period
Source text: The aim of this exploratory, randomized, placebo controlled crossover study was to investigate the effect of 1-[(3-cyano-pyridin-2-yl)methyl]-3-methyl-7-(2-butyn-1-yl)-8-[3-(R)-amino-piperidin-1-yl]-xanthine monohydrochloride on DPP IV activity and on glucose concentrations in obese and non-obese cats after repeated oral administration over seven days.
Fourteen clinically healthy male and female (8 obese and 6 non-obese) purpose-bred cats were used in this study. The animals were randomly allocated to two groups of cats, obese and non-obese, and treated in a cross-over design with 9 mg 1-[(3-cyano-pyridin-2-yl)methyl]-3-methyl-7-(2-butyn-1-yl)-8-[3-(R)-amino-piperidin-1-yl]-xanthine monohydrochloride or placebo, once daily for 7 days, with a following wash-out period of 21 days.
Cats were fed once daily 40 min after administration of the compound or the placebo, respectively.
To allow a Continuous glucose monitoring (CGM) a Continuous glucose monitoring system (CGMS) was applied. To this end, on day 1 a Medtronic continuous glucose monitoring sensor (Guardian system; Medtronic Minimed, Northridge, Calif., USA) was placed interstitially. The skin was shaved, and then wiped several times with 70% alcohol. The sensor was inserted into the skin and secured to the skin with a cover provided by Medtronics, and Elasticon. The CGMS was calibrated 2 times daily using a glucometer. When a sensor became non-functional, a new sensor was placed. The sensors were placed between the shoulder blades. Data were recalled via a wireless system.
Also blood samples for were taken before and 6, 12, 24, 64, and 168 hours (3 ml each) after oral administration of the test compound or the placebo. Blood samples for the calibration of the CGMS were taken at least twice daily from day 1 to day 7 approximately twelve hours apart (0.2 ml of blood each time). Glucose measurements were performed using a glucometer (Presto WaveSense) and also a colorimetric glucose oxidase method (Genzyme Diagnostics PEI Incorporated; Charlottetown, Canada), reference method, at appropriate time points (0.2 ml each time; see results section). Interstitial glucose concentrations were followed with the continuous glucose monitoring system. After 7 days, the CGMS was removed.
The measured mean, median, min, and max glucose values for all 14 cats during a 168 hour testing period using the three glucose measurement methods are shown in Table 9.

[6] = 60-Day tolerability study of tablets in cats: adverse effects; type: in vivo; conditions: 20 and 40 mg daily oral tablets for 60 days, monohydrochloride
Method: This study was conducted in order to examine the long-term tolerability of a pharmaceutical composition comprising 1-[(3-cyano-pyridin-2-yl)methyl]-3-methyl-7-(2-butyn-1-yl)-8-[3-(R)-amino-piperidin-1-yl]-xanthine monohydrochloride in cats after repeated oral administration for 60-days.
For this purpose, the compound according to the invention has been admixed with standard ingredients to a scored, oblong, brown tablet, size 10×5.5 mm, comprising 1-[(3-cyano-pyridin-2-yl)methyl]-3-methyl-7-(2-butyn-1-yl)-8-[3-(R)-amino-piperidin-1-yl]-xanthine monohydrochloride at 21.68 mg of the chloride per tablet (which equals 20 mg of the free base) and 10% meat flavour.
20 male healthy non-obese cats (Domestic short hair feline) supplied by Liberty Research, Inc., Waverly, N.Y., USA, of an age of 13 to 20 months were used. After an adaptation period of 4 weeks, they were separated into three groups: group 1 (6 members, no. 1 to 6) for placebo treatment, group 2 (7 members, no. 7 to 13) for treatment with 20 mg/cat, group 3 (7 members, no. 14 to 20) for treatment with 40 mg/cat. They were treated once daily in the morning, orally with the respective tablet(s) for 60 days. All animals had fasted over night and were fed 4 hours after the administration. Drinking water was offered ad libitum. […]

[7] = Glucose oxidase (reference method)

With `CC#CCn1c(N2CCC[C@@H](N)C2)nc2c1c(=O)n(Cc1ncccc1C#N)c(=O)n2C` [1-[(3-cyano-pyridin-2-yl)methyl]-3-methyl-7-(2-butyn-1-yl)-8-[3-(R)-amino-piperidin-1-yl]-xanthine monohydrochloride] the IC50 [1] was ~0.6 nM, the “inhibitory effect on plasmin” value [2] was “did not exert any inhibitory effect” and the “inhibitory effect on trypsin” value [3] was “did not exert any inhibitory effect”. The “reduction of glucose AUC in OGTT” value [4] was 39%, the “Glucose, Max” value ([5]; CGM) was 126 mg/dL and the “Glucose, Mean” value ([5]; CGM) was 94 mg/dL. For the same compound, the “Glucose, Median” value ([5]; CGM) was 93 mg/dL, the “Glucose, Min” value ([5]; CGM) was 66 mg/dL and the “Glucose, Max” value ([5]; Glucometer) was 131 mg/dL. For the same compound, the “Glucose, Mean” value ([5]; Glucometer) was 103 mg/dL, the “Glucose, Median” value ([5]; Glucometer) was 101 mg/dL and the “Glucose, Min” value ([5]; Glucometer) was 79 mg/dL. The “Glucose, Max” value [5, 7] was 142 mg/dL, the “Glucose, Mean” value [5, 7] was 93 mg/dL and the “Glucose, Median” value [5, 7] was 89 mg/dL. The “Glucose, Min” value [5, 7] was 71 mg/dL, the “daily blood glucose concentrations, treated vs placebo treated” value ([5]; obese or non-obese cats) was “no difference in daily blood glucose concentrations” and the “adverse effects / tolerability” value [6] was “Adverse effects were not detected; also recorded: well tolerated”.
